Experimental data reported in US20100310504A1, “METHODS FOR TREATING FIBROSIS BY MODULATING CELLULAR SENESCENCE” (priority 2007, published 2010).
Entries after “also recorded” stand apart in the source; their conditions may differ.

Assays:
liver = conditions: mouse, in vivo
Experimental: Animals. […] Wild type, p53^−/−, INK4a/Arf^−/− and p53^−/−;INK4a/Arf^−/− mice were treated twice a week with 12 consecutive i.p. (intraperitoneal) injections of 1 ml/kg CCl4 to induce liver fibrosis. GFAP-tTA;TRE-shp53 mice were treated similarly for 2 weeks. Animals were sacrificed 48-72 hours after the last injection and their livers used for further analysis. To modify NK cell function, mice were treated three times weekly either i.v. with an anti-Asialo-GM1 antibody (25 μl in 200 μl saline, Wako, Va., USA) for 10 or 20 days or i.p. with polyI:C (Sigma, USA) 1 mg/kg.
Histological analysis. Paraffin embedded tissue sections were stained with hematoxylin-eosin for routine examination, or with Sirius Red for visualization of fibrotic deposition. At least 3 whole sections from each animal were scanned by Laser Scanner Cytometry (CompuCyte, MA) for fibrosis quantification. These images were quantified using NIH ImageJ software (http://rsb.info.nih.gov/ij/). We calculated the amount of fibrotic tissue in diseased animals relatively to the basal amount of Sirius Red staining present in normal liver.
Frozen sections of liver tissue, or adherent cells were fixed with 0.5% Gluteraldehyde in PBS for 15 min, washed with PBS supplemented with 1 mM MgCl2 and stained for 5-6 hrs in PBS containing 1 mM MgCl2, 1 mg/ml X-Gal and 5 mM of each Potassium ferricyanide and Potassium ferrocyanide. Sections were counterstained with Eosin.
To investigate the relationship between fibrosis and cellular senescence, 7-9 week old female mice were subjected to a six week treatment with CCl4, a chemical widely used to induce fibrosis in experimental animals (Bataller and Brenner, 2005, J. Clin. Invest. 115, 209-218, the contents of which are hereby incorporated by reference).

senescent IMR-90 cells = assay: In vitro killing assay of growing and senescent IMR-90 cells by YT cells (NK cell line); type: cell-based, human; conditions: range of target:effector cell ratios
Experimental: Tissue culture. Human IMR-90 foetal lung fibroblasts (ATCC) and primary human hepatic myofibroblasts (activated HSCs) (Dominion Pharmakine, Spain) were grown in standard conditions (Narita et al., 2003). Senescence was induced by prolonged culturing, etoposide (100 μM, Sigma, USA) treatment, or infection of IMR-90 cells with oncogenic rasV12 as described (Narita et al., 2003). For in vitro cytotoxicity assays, growing or senescent cells were plated in 6-well plates at 50,000 cells per well. 5×10^5 YT cells (from DSMZ, Germany) were subsequently added to target cells. The plates were incubated under normal conditions for 12 hours, and then NK cell cytotoxicity was determined using crystal violet staining of remaining adherent cells or followed with a Zeiss AxioObserver microscope equipped with 37° C. incubator hood and 6.3% CO2 cover.
To test if a Perforin mediated pathway is involved in senescent cell killing in vitro, the in vitro killing assays of growing and senescent IMR-90 cells were used (the assay is described at Krizhanovsky, V. et al., “Senescence of Activated Stellate Cells Limits Liver Fibrosis,” Cell, 134, 657-667 (Aug. 22, 2008), which is hereby incorporated by reference). Growing and senescent IMR-90 cells were incubated with different amounts of YT cells (NK cell line) in presence or absence of granule exocytosis pathway inhibitor Concanamycin A (CMA). […]

[1] = tested on: primary human activated HSCs; assay: Senescence induction in cultured primary human activated HSCs; type: cell-based; conditions: etoposide 100 μM, within several days of treatment
[2] = tested on: senescent activated HSCs in fibrotic livers; assay: Fibrosis reversion and senescent cell clearance in CCl4 treated mice with modified NK cell function; type: in vivo, mouse
Experimental: Animals. […] GFAP-tTA mice were obtained from the Jackson Laboratory.
Sections were counterstained with Eosin.
Immunoblotting. Liver tissue was lysed in Laemmli buffer using a tissue homogenizer. Equal amounts of protein were separated on 12% SDS-polyacrylamide gels and transferred to PVDF membranes. Detection was performed using anti-αSMA (DakoCytomation, Denmark), anti-13Actin (AC-15, Sigma, USA).
Expression array analysis and quantitative RT-PCR. […] Affymetrix Human Genome U133 Plus 2.0Array were used to identify genes expressed in HSC.
To determine whether NK cells can target senescent cells in vivo and their impact on liver fibrosis, modulating NK cell function was tested for how it would influence the frequency of senescent activated HSCs and fibrosis resolution in livers obtained from mice following a six week course of CCl4 or at various times after ceasing treatment. To deplete NK cells mice were treated with neutralizing antibodies [anti-AsialoGM1 (Radaeva et al., 2006; Xue et al., 2007)] during the period following CCl4 withdrawal. Conversely, to enhance the immune response, we treated mice with polyinosinic-polycytidylic acid (polyI:C), which induces interferon-γ and enhances NK cell activity in the liver (Radaeva et al., 2006).

[3] = wild type mice after six week CCl4, treated 10 or 20 days following CCl4 withdrawal, compared to saline controls

3,5-diethoxycarbonyl-1,4-dihydrocollidine [DDC]
accumulation of senescent cells in livers of treated mice (liver): accumulated

ClC(Cl)(Cl)Cl [CCl4]
accumulation of senescent cells in livers of treated mice (liver): accumulated in fibrotic livers | increase in Sirius Red-positive area over untreated controls (liver): 3 to 4 fold | liver area Sirius Red-positive (quantitative laser scanning cytometry) (liver): Approximately 2%

C/C=C/[C@H]1O[C@@](O)([C@@H](C)[C@H](O)[C@H](C)[C@H]2OC(=O)/C(OC)=C/C(C)=C/[C@@H](C)[C@@H](O)[C@@H](CC)[C@@H](O)[C@H](C)C/C(C)=C/C=C/[C@@H]2OC)C[C@@H](O[C@H]2C[C@@H](O)[C@H](OC(N)=O)[C@@H](C)O2)[C@@H]1C [CMA, Concanamycin A]
preferential killing of senescent cells by NK cells (YT) in presence of inhibitor (senescent IMR-90 cells): significantly inhibited

COc1cc([C@@H]2c3cc4c(cc3[C@@H](O[C@@H]3O[C@@H]5CO[C@@H](C)O[C@H]5[C@H](O)[C@H]3O)[C@H]3COC(=O)[C@H]23)OCO4)cc(OC)c1O [etoposide]
senescence of activated HSCs (proliferation stop, SA-β-gal activity, heterochromatic foci) [1]: undergo senescence

polyinosinic-polycytidylic acid [polyI:C]
αSMA mRNA and protein levels in fibrotic livers (activated HSC marker) ([2]; quantitative RT-PCR and immunoblot, 10 days treatment after CCl4, compared to saline): decreased | fibrosis / fibrotic tissue (Sirius Red staining) [2, 3]: less fibrotic tissue; also recorded: depleted more efficiently | senescent cells (SA-β-gal positive) in fibrotic liver [2, 3]: fewer senescent cells; also recorded: enhanced clearance of senescent cells
